# Laboratory results: patent publication US10149839B2, “Chemical compounds” (AstraZeneca AB, priority 2016, dated 2018)
# What was measured:
# [1] = Thermodynamic solubility (shake flask); format: physicochemical; conditions: aqueous phosphate buffer pH 7.4, 24 hours
# [2] = Human hepatocyte assay (metabolic stability); format: in vitro ADME; conditions: cryopreserved pooled human hepatocytes (LiverPool 10 Donor), in vitro intrinsic clearance
# [3] = Human plasma protein binding (equilibrium dialysis); format: in vitro ADME; conditions: dialysis 18 hours
# [4] = target: T1, Estrogen Receptor (ERα) in MCF-7 cells (Homo sapiens (Human), UniProt P03372); assay: MCF-7 ER down-regulation assay (immuno-fluorescence); format: cell-based; conditions: for IC50: 18-22 hours incubation; for % downregulation: shown in brackets where not >90%
# T1 sequence (P03372 whole entry): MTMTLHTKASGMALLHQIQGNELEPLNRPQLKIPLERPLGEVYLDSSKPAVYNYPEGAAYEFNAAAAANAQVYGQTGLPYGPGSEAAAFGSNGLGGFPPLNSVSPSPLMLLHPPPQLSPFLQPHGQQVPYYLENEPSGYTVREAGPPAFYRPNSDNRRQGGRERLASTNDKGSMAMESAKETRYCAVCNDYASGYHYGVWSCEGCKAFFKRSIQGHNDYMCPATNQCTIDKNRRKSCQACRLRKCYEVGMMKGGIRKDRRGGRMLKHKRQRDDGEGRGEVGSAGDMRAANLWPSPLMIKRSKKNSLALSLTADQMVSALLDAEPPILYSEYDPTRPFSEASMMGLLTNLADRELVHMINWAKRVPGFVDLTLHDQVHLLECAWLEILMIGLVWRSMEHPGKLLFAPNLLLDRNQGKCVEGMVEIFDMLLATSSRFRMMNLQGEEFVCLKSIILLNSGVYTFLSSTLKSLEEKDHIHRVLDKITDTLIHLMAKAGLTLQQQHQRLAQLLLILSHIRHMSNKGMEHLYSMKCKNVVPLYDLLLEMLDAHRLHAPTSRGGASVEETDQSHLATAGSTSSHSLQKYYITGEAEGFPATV
# physchem = conditions: 1-octanol/aqueous buffer, pH 7.4
# [5] = Log D (shake flask, 1-octanol/aqueous buffer); conditions: pH 7.4, 1-octanol/aqueous buffer
# [6] = target: estrogen receptor (ERα) in CAMA-1 cells (Homo sapiens (Human), UniProt P03372); assay: Western blotting assay, CAMA-1 cells; format: cell-based; conditions: compound 100 nM, 48 h, normalised to 100 nM fulvestrant (100%)
# estrogen receptor (ERα) in CAMA-1 cells, sequence (P03372 whole entry): as above
# [7] = target: T1, Estrogen Receptor (ERα) in MCF-7 cells; assay: Western blotting assay, MCF-7 cells; format: cell-based; conditions: compound 100 nM, 48 h, normalised to 100 nM fulvestrant (100%)
# [8] = aqueous phosphate buffer, 25 °C, pH 7.4, aqueous buffer, thermodynamic from solid
"solubility at 24 h [1, 8] [µM]",hepatocyte CLint at 1 µM [2] [µL/min/1e6 cells],Human plasma protein binding (% free) [3] [% free],IC50 [4] [nM],logD (physchem),solubility at 24 h ([1]; 25° C.) [µM],% downregulation [4],LogD pH 7.4 [5],CAMA1 Western % ER deg vs Fv [6] [%],MCF7 Western % ER deg vs Fv [7] [%],Compound
34,< 1,1.4,0.94,4.6,,,,,,"CC(C)CN1[C@H](c2ccc(OCCNCCC(F)F)cc2)c2[nH]c3ccccc3c2C[C@H]1C [Example 1, 3,3-difluoro-N-(2-(4-((1R,3R)-2-isobutyl-3-methyl-2,3,4,9-tetrahydro-1H-pyrido[3,4-b]indol-1-yl)phenoxy)ethyl)propan-1-amine]"
,,0.41,,,53,,3.8,,,"COCC(C)(F)CN1[C@H](c2c(F)cc(OCCNCCCF)cc2F)c2[nH]c3ccccc3c2C[C@H]1C (single isomer, unassigned) [Example 51]"
99,,2.2,0.28,3.8,,,,82,81,"COc1cc(OCCNCCCF)cnc1[C@@H]1c2[nH]c3ccccc3c2C[C@@H](C)N1CC(C)(C)F [Example 35, 3-fluoro-N-(2-((6-((1S,3R)-2-(2-fluoro-2-methylpropyl)-3-methyl-2,3,4,9-tetrahydro-1H-pyrido[3,4-b]indol-1-yl)-5-methoxypyridin-3-yl)oxy)ethyl)propan-1-amine]"
,,1.8,,,149,,3.1,,,"C[C@@H]1Cc2c([nH]c3ccccc23)[C@@H](c2c(F)cc(OCCNCCCF)cc2F)N1CC(F)CF (single isomer, unassigned) [Example 16]"
135,5,2.0,1.2,3.4,,,,,,"C[C@@H]1Cc2c([nH]c3ccccc23)[C@@H](c2ccc(OCCNCCCF)cn2)N1CC(C)(C)F [Example 30, 3-fluoro-N-(2-((6-((1S,3R)-2-(2-fluoro-2-methylpropyl)-3-methyl-2,3,4,9-tetrahydro-1H-pyrido[3,4-b]indol-1-yl)pyridin-3-yl)oxy)ethyl)propan-1-amine]"
411,,1.0,1.2,3.4,,,,60,31,"COc1nc(OCCNCCCF)ccc1[C@@H]1c2[nH]c3ccccc3c2C[C@@H](C)N1CC(F)F [Example 75, N-(2-((5-((1R,3R)-2-(2,2-difluoroethyl)-3-methyl-2,3,4,9-tetrahydro-1H-pyrido[3,4-b]indol-1-yl)-6-methoxypyridin-2-yl)oxy)ethyl)-3-fluoropropan-1-amine]"
301,< 1,1.5,0.43,3.6,,,,,,"CC(C)CN1[C@H](c2ccc(OCCNCCCF)cc2)c2[nH]c3ccccc3c2C[C@H]1C [Example 2, 3-fluoro-N-(2-(4-((1R,3R)-2-isobutyl-3-methyl-2,3,4,9-tetrahydro-1H-pyrido[3,4-b]indol-1-yl)phenoxy)ethyl)propan-1-amine]"
,,2.7,0.38,,65,,3.2,,,"C[C@@H]1Cc2c([nH]c3ccccc23)[C@@H](c2ccc(OCCNCCCF)cc2)N1C[C@H](F)CF (single isomer, unassigned) [Example 26]"
227,,1.3,0.43,3.3,,,,75,88,"C[C@@H]1Cc2c([nH]c3ccccc23)[C@@H](c2cnc(OCCNCCCF)cn2)N1CC(C)(C)F [Example 38, 3-fluoro-N-(2-((5-((1S,3R)-2-(2-fluoro-2-methylpropyl)-3-methyl-2,3,4,9-tetrahydro-1H-pyrido[3,4-b]indol-1-yl)pyrazin-2-yl)oxy)ethyl)propan-1-amine]"

# More lines, now with the values behind:
Compound,"solubility at 24 h [1, 8] [µM]",hepatocyte CLint at 1 µM [2] [µL/min/1e6 cells],Human plasma protein binding (% free) [3] [% free],IC50 [4] [nM],logD (physchem),solubility at 24 h ([1]; 25° C.) [µM],% downregulation [4],LogD pH 7.4 [5],CAMA1 Western % ER deg vs Fv [6] [%],MCF7 Western % ER deg vs Fv [7] [%]
"C[C@@H]1Cc2c([nH]c3ccccc23)[C@@H](c2c(F)cc(OCC(CO)NCCCF)cc2F)N1CC(C)(C)F (single isomer, unassigned) [Example 52]",,,0.47,0.24,,14,(79%),>4.1,,
"C[C@@H]1Cc2c([nH]c3ccccc23)[C@@H](c2c(F)cc(NCCNCCCF)cc2F)N1CC(F)(F)CO [Example 46, 3-((1R,3R)-1-(2,6-difluoro-4-((2-((3-fluoropropyl)amino)ethyl)amino)phenyl)-3-methyl-1,3,4,9-tetrahydro-2H-pyrido[3,4-b]indol-2-yl)-2,2-difluoropropan-1-ol]",952,,2.3,0.093,2.6,,,,74,88
"C[C@@H]1Cc2c([nH]c3ccccc23)[C@@H](c2c(F)cc(N(C)CCNCCCF)cc2F)N1CC1(F)CC1 [Example 45, N1-(3,5-difluoro-4-((1R,3R)-2-((1-fluorocyclopropyl)methyl)-3-methyl-2,3,4,9-tetrahydro-1H-pyrido[3,4-b]indol-1-yl)phenyl)-N2-(3-fluoropropyl)-N1-methylethane-1,2-diamine]",85,,1.0,0.31,3.5,,,,72,97
"C[C@@H]1Cc2c([nH]c3ccccc23)[C@@H](c2c(F)cc(OCCNCCCF)cc2F)N1CC(C)(F)CO (single isomer, unassigned) [Example 18]",,,2.4,0.65,,639,(85%),2.7,,
"COCC(F)(F)CN1[C@H](c2c(F)cc(OCCNCCCF)cc2F)c2[nH]c3ccccc3c2C[C@H]1C [Example 14, N-(2-(4-((1R,3R)-2-(2,2-difluoro-3-methoxypropyl)-3-methyl-2,3,4,9-tetrahydro-1H-pyrido[3,4-b]indol-1-yl)-3,5-difluorophenoxy)ethyl)-3-fluoropropan-1-amine]",10,,0.9,0.64,3.6,,(89%),,31,61
"C[C@@H]1Cc2c([nH]c3ccccc23)[C@@H](c2c(F)cc(NCCNCCCF)cc2F)N1CC1(F)COC1 [Example 44, N1-(3,5-difluoro-4-((1R,3R)-2-((3-fluorooxetan-3-yl)methyl)-3-methyl-2,3,4,9-tetrahydro-1H-pyrido[3,4-b]indol-1-yl)phenyl)-N2-(3-fluoropropyl)ethane-1,2-diamine]",577,,2.3,0.17,3.1,,,,90,85
"COc1cc(OCCNCCCF)ncc1[C@@H]1c2[nH]c3ccccc3c2C[C@@H](C)N1CC1(F)COC1 [Example 7, 3-fluoro-N-(2-((5-((1R,3R)-2-((3-fluorooxetan-3-yl)methyl)-3-methyl-2,3,4,9-tetrahydro-1H-pyrido[3,4-b]indol-1-yl)-4-methoxypyridin-2-yl)oxy)ethyl)propan-1-amine]",> 1000,,17,0.51,2.3,,,,48,74
"C[C@@H]1Cc2c([nH]c3ccccc23)[C@@H](c2c(F)cc(OCC(CO)NCCCF)cc2F)N1CC(C)(C)F (single isomer, unassigned) [Example 53]",,,0.55,0.14,,23,,>4.2,,
